Patent US7960339B2, “Antimicrobial peptides” (Österreichische Akademie der Wissenschaften, priority 2006, dated 2011)
Peptide text beside a SMILES is read from it. * marks the point of attachment. Dicyclohexylacetyl = O=C(C(C1CCCCC1)C1CCCCC1)*; Octanoyl(6-Me) = CCC(C)CCCCC(=O)*; Octanoyl = CCCCCCCC(=O)*; X1 = CCCCC(CC)C(=O)*

System: C. neoformans ATCC 32045
Assay type: cell-based
Conditions: ATCC 32045, 72 h
Protocol: C. neoformans ATCC 32045 cultures were maintained on yeast medium (YM; Difco Laboratories, Detroit, Mich.) agar plates at 4° C. Prior to the assay, the cultures were grown on agar plates and incubated for 72 hrs at 26° C. Two colonies of these newly grown fungal cultures were then inoculated in 5 ml of 2×YM broth, vortexed, and diluted 10-fold in 2×YM broth, for an approximate final assay concentration of 1×105 to 5×10^5 CFU/ml. In 96-well tissue culture plates, fungal suspensions in 2×YM broth were added to the peptides dispensed at concentrations ranging from 1 mg/ml to 1 μg/ml derived from serial twofold dilutions in sterile water. The plates were then incubated for 72 hrs at 26° C. The relative percent growth of the fungi found for each test sample was determined by the optical density at 620 nm (OD620) by using a Titertek Multiskan Plus apparatus. […] The IC50 were calculated by using a sigmoidal curve-fitting software program (Graphpad Prism; ISI Software, San Diego, Calif.).

| Structure (SMILES) | average IC50 | average MIC |
| --- | --- | --- |
| CC[C@H](C)[C@H](NC(=O)[C@H](CCCNC(=N)N)NC(=O)[C@H](CCCCN)NC(=O)[C@H](CCCNC(=N)N)NC(=O)[C@H](Cc1c[nH]c2ccccc12)NC(=O)[C@H](Cc1ccccc1)NC(=O)[C@@H]1CCCN1)C(=O)N[C@@H](CCCNC(=N)N)C(=O)N[C@@H](CCCNC(=N)N)C(N)=O [VS1-28, PFWRKRIRR-NH2] (H-PFWRKRIRR-NH2; N-terminus assumed) | 8 µg/mL | 32 µg/mL |
| CCC(C)CCCCC(=O)N[C@@H](CCCNC(=N)N)C(=O)N[C@@H](Cc1c[nH]c2ccccc12)C(=O)N[C@@H](CCCCN)C(=O)N[C@@H](CCCNC(=N)N)C(=O)N[C@H](C(=O)N[C@@H](CC(N)=O)C(=O)N[C@@H](CCCNC(=N)N)C(=O)N[C@@H](CCC(N)=O)C(=O)N[C@@H](Cc1c[nH]c2ccccc12)C(=O)N[C@@H](Cc1ccccc1)C(N)=O)[C@@H](C)CC (stereo partly shown) [VS1-48, 6-methyloctanoyl RWKRINRQWF-NH2] ({Octanoyl(6-Me)}-RWKRINRQWF-NH2) | 2 µg/mL | 8 µg/mL |
| CCC(C)CCCCC(=O)N[C@@H](Cc1ccccc1)C(=O)N[C@@H](Cc1c[nH]c2ccccc12)C(=O)N[C@@H](CCCNC(=N)N)C(=O)N[C@@H](CCCNC(=N)N)C(=O)N[C@@H](Cc1ccccc1)C(=O)N[C@@H](Cc1c[nH]c2ccccc12)C(=O)N[C@@H](CCCNC(=N)N)C(=O)N[C@@H](CCCNC(=N)N)C(N)=O (stereo partly shown) [VS1-63, 6-methyloctanoyl FWRRFWRR-NH2] ({Octanoyl(6-Me)}-FWRRFWRR-NH2) | 11 µg/mL | 62 µg/mL |
| CCCCCCCC(=O)N1CCC[C@H]1C(=O)N[C@@H](Cc1ccccc1)C(=O)N[C@@H](Cc1c[nH]c2ccccc12)C(=O)N[C@@H](CCCNC(=N)N)C(=O)N[C@H](C(=O)N[C@@H](CCCNC(=N)N)C(=O)N[C@H](C(=O)N[C@@H](CCCNC(=N)N)C(=O)N[C@@H](CCCNC(=N)N)C(N)=O)[C@@H](C)CC)[C@@H](C)CC [VS1-50, octanoyl PFWRIRIRR-NH2] (Octanoyl-PFWRIRIRR-NH2) | 6 µg/mL | 16 µg/mL |
| CCC(C)CCCCC(=O)N[C@@H](Cc1ccccc1)C(=O)N[C@@H](Cc1c[nH]c2ccccc12)C(=O)N[C@@H](CCC(N)=O)C(=O)N[C@@H](CCCNC(=N)N)C(=O)N[C@@H](CC(N)=O)C(=O)N[C@H](C(=O)N[C@@H](CCCNC(=N)N)C(=O)N[C@@H](CCCCN)C(=O)N[C@@H](Cc1c[nH]c2ccccc12)C(=O)N[C@@H](CCCNC(=N)N)C(N)=O)[C@@H](C)CC (stereo partly shown) [VS1-43, 6-methyloctanoyl FWQRNIRKWR-NH2] ({Octanoyl(6-Me)}-FWQRNIRKWR-NH2) | 6 µg/mL | 16 µg/mL |
| CCCCC(CC)C(=O)N[C@@H](CCCNC(=N)N)C(=O)N[C@@H](Cc1c[nH]c2ccccc12)C(=O)N[C@@H](CCCCN)C(=O)N[C@@H](CCCNC(=N)N)C(=O)N[C@H](C(=O)N[C@@H](CC(N)=O)C(=O)N[C@@H](CCCNC(=N)N)C(=O)N[C@@H](CCC(N)=O)C(=O)N[C@@H](Cc1c[nH]c2ccccc12)C(=O)N[C@@H](Cc1ccccc1)C(N)=O)[C@@H](C)CC (stereo partly shown) [VS1-46, 2-ethylhexanoyl RWKRINRQWF-NH2] (X1-RWKRINRQWF-NH2) | 4 µg/mL | 8 µg/mL |
| CCCCC(CC)C(=O)N[C@@H](Cc1ccccc1)C(=O)N[C@@H](Cc1c[nH]c2ccccc12)C(=O)N[C@@H](CCC(N)=O)C(=O)N[C@@H](CCCNC(=N)N)C(=O)N[C@@H](CC(N)=O)C(=O)N[C@H](C(=O)N[C@@H](CCCNC(=N)N)C(=O)N[C@@H](CCCCN)C(=O)N[C@@H](Cc1c[nH]c2ccccc12)C(=O)N[C@@H](CCCNC(=N)N)C(N)=O)[C@@H](C)CC (stereo partly shown) [VS1-41, 2-ethylhexanoyl FWQRNIRKWR-NH2] (X1-FWQRNIRKWR-NH2) | 4 µg/mL | 8 µg/mL |
| N=C(N)NCCC[C@H](NC(=O)[C@H](CCCNC(=N)N)NC(=O)[C@H](Cc1c[nH]c2ccccc12)NC(=O)[C@H](Cc1ccccc1)NC(=O)[C@H](Cc1c[nH]c2ccccc12)NC(=O)[C@H](CCCNC(=N)N)NC(=O)[C@@H](N)CCCNC(=N)N)C(=O)O [VS1-39, RRWFWRR-OH] (H-RRWFWRR-OH; N-terminus assumed) | 6 µg/mL | 32 µg/mL |
| CC[C@H](C)[C@H](NC(=O)[C@H](CCCNC(=N)N)NC(=O)[C@H](CCC(N)=O)NC(=O)[C@H](CCCNC(=N)N)NC(=O)[C@H](Cc1c[nH]c2ccccc12)NC(=O)[C@H](Cc1ccccc1)NC(=O)[C@@H]1CCCN1)C(=O)N[C@@H](CCCNC(=N)N)C(=O)N[C@@H](CCCNC(=N)N)C(N)=O [VS1-25, PFWRQRIRR-NH2] (H-PFWRQRIRR-NH2; N-terminus assumed) | 6 µg/mL | 32 µg/mL |
| CC[C@H](C)[C@H](NC(=O)[C@H](CCCNC(=N)N)NC(=O)[C@H](CCCNC(=N)N)NC(=O)[C@H](CCC(N)=O)NC(=O)[C@H](Cc1c[nH]c2ccccc12)NC(=O)[C@@H](N)Cc1ccccc1)C(=O)N[C@@H](CCCNC(=N)N)C(=O)N[C@@H](CCCCN)C(=O)N[C@@H](Cc1c[nH]c2ccccc12)C(=O)N[C@@H](CCCNC(=N)N)C(N)=O [VS1-17, FWQRRIRKWR-NH2] (H-FWQRRIRKWR-NH2; N-terminus assumed) | 5 µg/mL | 32 µg/mL |
| CCCCCCCC(=O)N[C@@H](CCCNC(=N)N)C(=O)N[C@@H](Cc1c[nH]c2ccccc12)C(=O)N[C@@H](CCCCN)C(=O)N[C@@H](CCCNC(=N)N)C(=O)N[C@H](C(=O)N[C@@H](CC(N)=O)C(=O)N[C@@H](CCCNC(=N)N)C(=O)N[C@@H](CCC(N)=O)C(=O)N[C@@H](Cc1c[nH]c2ccccc12)C(=O)N[C@@H](Cc1ccccc1)C(N)=O)[C@@H](C)CC [VS1-45, octanoyl RWKRINRQWF-NH2] (Octanoyl-RWKRINRQWF-NH2) | 2 µg/mL | 4 µg/mL |
| CC(C)C[C@H](NC(=O)[C@H](CCCNC(=N)N)NC(=O)[C@H](CCCCN)NC(=O)[C@H](CCCNC(=N)N)NC(=O)[C@H](Cc1c[nH]c2ccccc12)NC(=O)[C@H](Cc1ccccc1)NC(=O)[C@@H]1CCCN1)C(=O)N[C@@H](CCCNC(=N)N)C(=O)N[C@@H](CCCNC(=N)N)C(N)=O [VS1-29, PFWRKRLRR-NH2] (H-PFWRKRLRR-NH2; N-terminus assumed) | 9 µg/mL | 32 µg/mL |
| CC[C@H](C)[C@H](NC(=O)[C@H](CCCNC(=N)N)NC(=O)[C@H](CCCCN)NC(=O)[C@H](Cc1c[nH]c2ccccc12)NC(=O)[C@H](CCCNC(=N)N)NC(=O)C(C1CCCCC1)C1CCCCC1)C(=O)N[C@@H](CC(N)=O)C(=O)N[C@@H](CCCNC(=N)N)C(=O)N[C@@H](CCC(N)=O)C(=O)N[C@@H](Cc1c[nH]c2ccccc12)C(=O)N[C@@H](Cc1ccccc1)C(N)=O [VS1-49, dicyclohexylacetyl RWKRINRQWF-NH2] (Dicyclohexylacetyl-RWKRINRQWF-NH2) | 2 µg/mL | 4 µg/mL |
| CC[C@H](C)[C@H](NC(=O)[C@H](CCCNC(=N)N)NC(=O)[C@H](CCCNC(=N)N)NC(=O)[C@H](Cc1c[nH]c2ccccc12)NC(=O)[C@@H]1CCCN1)C(=O)N[C@@H](CCCNC(=N)N)C(=O)N[C@@H](CCCNC(=N)N)C(N)=O [VS1-35, PWRRIRR-NH2] (H-PWRRIRR-NH2; N-terminus assumed) | 12 µg/mL | 32 µg/mL |
| CCCCCCCC(=O)N[C@@H](Cc1ccccc1)C(=O)N[C@@H](Cc1c[nH]c2ccccc12)C(=O)N[C@@H](CCCNC(=N)N)C(=O)N[C@@H](CCCNC(=N)N)C(=O)N[C@@H](Cc1ccccc1)C(=O)N[C@@H](Cc1c[nH]c2ccccc12)C(=O)N[C@@H](CCCNC(=N)N)C(=O)N[C@@H](CCCNC(=N)N)C(N)=O [VS1-60, octanoyl FWRRFWRR-NH2] (Octanoyl-FWRRFWRR-NH2) | 10 µg/mL | 32 µg/mL |
| CCCCC(CC)C(=O)N1CCC[C@H]1C(=O)N[C@@H](Cc1ccccc1)C(=O)N[C@@H](Cc1c[nH]c2ccccc12)C(=O)N[C@@H](CCCNC(=N)N)C(=O)N[C@H](C(=O)N[C@@H](CCCNC(=N)N)C(=O)N[C@H](C(=O)N[C@@H](CCCNC(=N)N)C(=O)N[C@@H](CCCNC(=N)N)C(N)=O)[C@@H](C)CC)[C@@H](C)CC (stereo partly shown) [VS1-51, 2-ethylhexanoyl PFWRIRIRR-NH2] (X1-PFWRIRIRR-NH2) | 3 µg/mL | 8 µg/mL |
| N=C(N)NCCC[C@H](NC(=O)[C@H](CCCNC(=N)N)NC(=O)[C@H](Cc1c[nH]c2ccccc12)NC(=O)[C@H](CCCNC(=N)N)NC(=O)[C@H](CCCNC(=N)N)NC(=O)[C@H](CCCNC(=N)N)NC(=O)[C@H](Cc1c[nH]c2ccccc12)NC(=O)[C@H](Cc1ccccc1)NC(=O)[C@@H]1CCCN1)C(N)=O [VS1-33, PFWRRRWRR-NH2] (H-PFWRRRWRR-NH2; N-terminus assumed) | 9 µg/mL | 32 µg/mL |
